Legend:
Format in all cases: cell-based
[1] = tested on: rat glial cells C6; experiment: Protection from necrosis induced by maitotoxin, C6 (wst-1 viability); conditions: single product at 50 μM, n = 3 for Example 2, else n = 1
Procedure: (§1) Human neuroblastomas SHSY5Y and rat glial cells C6 are seeded at 25 000 cells per well in 96-well plates in DMEM 10% FBS for 24 hours. The L6 rat myoblasts are seeded at 1000 cells per well in DMEM 10% FBS on 96-well microplates coated beforehand with gelatin 0.5% PBS. After culture for 3 days the medium is removed and replaced with a differentiation medium (DMEM+10 μg/ml of insulin+100 μg/ml of transferrin). 50 μl of product A plus 50 μl of solvent or 50 μl of product B are placed in the wells. After incubation for 1 hour at 37° C. under an atmosphere of 5% CO2, 10 μl of maitotoxin is added in order to obtain a final concentration of 0.1 nM to 1 nM (according to the cell type). After incubation for 3 hours at 37° C. under an atmosphere of 5% CO2, the cell viability is determined by adding 10 μl of tetrazolium salts (wst-1, Roche, ref: 1644807). The tetrazolium salts are cleaved into formazan molecules by mitochondrial dehydrogenases. The quantity of formazan formed is directly correlated to the number of metabolically active cells in the culture. Measurement of the absorbance of the formazan is carried out using a multiwell photometer at a wavelength of 420 nm against a reference wavelength of 620 nm.
(§2) The theoretical effect was obtained by multiplying the percentage of dead cells in the presence of product A by the percentage of dead cells in the presence of product B (Table 3). The percentage protection against cell death induced by MTX being the percentage of cells kept alive in the presence of the product or products.
In the light of the previous results, the combination of Example 1 with product A and product B at a rate of 100 μM of each of the products is carried out on human neuroblastomas (SHSY5Y; (Table 5A) and on glial cells with 25 μM of product A and 50 μM of product B (C6; Table 5B) on a larger number of cases.

[2] = tested on: human neuroblastomas SHSY5Y; experiment: Protection from necrosis induced by maitotoxin, SHSY5Y (wst-1 viability); conditions: for Protection from necrosis induced by MTX: SHSY5Y, n=2, 0.1 nM maitotoxin; for Protection from necrosis induced by MTX on SHSY5Y: n = 8, single product at 100 μM
Procedure: as §1, §2
In a first series of experiments, the concentration of product A in Example 1 is fixed (100 μM), product B is added at concentrations varying from zero to 100 μM (Table 4A). In a second series of experiments, product B of Example 1 is fixed at 100 μM, product A is added at concentrations varying from zero to 100 μM (Table 4B).

[3] = tested on: calpain activity in rat glial cells (C6); experiment: In situ calpain activity in rat glial cells C6 stimulated by maitotoxin; conditions: read-out: Inhibition human calpain I, in situ (C6) [IC50 (nM)]; n = 3; maitotoxin 1 nM; 1 h 30 min
Procedure: (§3) Human neuroblastomas SHSY5Y and rat glial cells C6 are seeded at a rate of 50,000 and 25,000 cells respectively per well on 96-well plates in DMEM 10% FBS. The next day, the cells which have adhered are washed 3 times in DMEM medium without serum and 40 mM Hepes. 100 microlitres of product B is placed in the wells. After incubation for 1 hour at 37° C. under an atmosphere of 5% CO2, 10 μl containing the fluorescent substrate of calpain (Suc-Leu-Tyr-AMC) and maitotoxin (Sigma, ref: M-9159), in order to obtain a final concentration in the well of 100 μM and of 1 nM respectively are added.
(§4) In order to determine the total activity of the cell enzyme, wells containing no product are added to the plate (100 μL DMSO 100th plus 10 μl of MTX and substrate). The background noise is determined by adding control wells with no MTX. Each concentration of the products (0.3 μM to 200 μM for the SHSY5Y's and 0.01 μM to 100 μM for the C6's) is tested in triplicate. The plates are shaken, the fluorescence is read at 380/460 nm using the Victor at T zero. Incubation takes place for four hours for the SHSY5Y and 1 hour 30 minutes for the C6 cells at 30° C. in darkness.

[4] = tested on: calpain activity in human neuroblastomas (SHSY5Y); experiment: In situ calpain activity in human neuroblastomas SHSY5Y stimulated by maitotoxin; conditions: read-out: Inhibition human calpain I, in situ (SHSY5Y) [IC50 (nM)]; n = 6; maitotoxin 1 nM; 4 h
Procedure: as §3, §4

Question: With `CC(C)C[C@@H](C=O)NC(=O)[C@H](CC(C)C)NC(=O)OCc1ccccc1` [EXAMPLE 1 B, benzyl (1S)-1-({[(1S)-1-formyl-3-methylbutyl]amino}carbonyl)-3-methylbutylcarbamate] as the compound, how does the “Protection from necrosis induced by MTX on C6” value (“Protection … on C6” below) [1] read?
Answer: 9.63%

Question: What about the “Protection … on C6” value ([1]; listed as EXAMPLE 6 B) of the same compound?
Answer: 4.91%

Question: And the “Protection … on C6” value ([1]; listed as Z-Leu-Leu-H)?
Answer: not active

Question: What about the “Protection from necrosis induced by MTX” value ([2]; single compound at 12.5 μM) of the same compound?
Answer: 6.89 ± 1.51%

Question: And the “Protection from necrosis induced by MTX” value ([2]; single compound at 25 μM)?
Answer: 6.94 ± 0.2%

Question: And the “Protection from necrosis induced by MTX” value ([2]; single compound at 50 μM)?
Answer: 9.01 ± 0.83%

Question: And the “Protection from necrosis induced by MTX” value ([2]; single compound at 100 μM)?
Answer: 17.52 ± 2.69%

Question: What about the “Protection from necrosis induced by MTX on SHSY5Y” value [2] of the same compound?
Answer: 12.87 ± 3.72%

Question: What about the “Protection from necrosis induced by MTX on SHSY5Y” value ([2]; listed as Z-Leu-Leu-H) of the same compound?
Answer: not active

Question: What about the IC50 [3] of the same compound?
Answer: 1750 ± 340 nM

Question: And the IC50 [4]?
Answer: 13400 ± 2390 nM
